Earlier results as cited in patent US4178376A, “Method for inducing rapid therapeutically effective antimalarial levels of certain selected conventional antimalarials” (Interx Research Corporation, priority 1977, dated 1979).

Conditions: water

aqueous solubility	SMILES
approximately 7.0 mg per liter of water	CCCCN(CCCC)CCC(O)c1cc(-c2ccc(C(F)(F)F)cc2)nc(-c2ccc(C(F)(F)F)cc2)c1 (centres unmarked) [3-Dibutylamino-1-[2,6-bis(4-trifluoromethylphenyl)-4-pyridyl] propanol]
approximately 1.0 mg per liter of water	CCCCN(CCCC)CC(O)c1cc(-c2ccc(Cl)c(Cl)c2)nc2c(Cl)cc(Cl)cc12 (centres unmarked) [Compound I]
